Measurements published in publication PMC8789071 (2022).

Tested on: human telomeric G-quadruplex (139-nt GQ strand) in DNA origami nanobowl (DNA, G4) TTACCTTTCCCCTCTGGCAAAACTATTCCGGTAAACTTAGGGTTAGGGTTAGGGTTAGGGTTATTTTTTTTATTTCTTCAGGCTTAACCATGCATTCCGATTGCAGCTTGCATCCATTGCATCGCTTGAATTGTCCAGC
Assay: optical tweezers mechanical unfolding, force populations
Settings: 100 mM KCl, 10 mM MgCl2; 20 mM Tris pH 7.8, 1 mM EDTA; free PDS 20-500 nM; bound populations outside and inside nanobowl rise

Structure (SMILES): NCCOc1cc(C(=O)Nc2cc(OCCN)c3ccccc3n2)nc(C(=O)Nc2cc(OCCN)c3ccccc3n2)c1
- binding: yes
